Converted amounts (≈) assume the structure as drawn.
Tests used:
[1] = tested on: Escherichia coli strain ATCC 25922; conditions: cited from earlier work
[2] = tested on: Escherichia coli strain ATCC 25922 called "EC10"; test: Raman spectroscopy analysis of individual bacteria exposed to an antibiotic (method of the invention), strain EC10; type: cell-based
Protocol: (§1) The retained conditioning device is constituted of two fluidic chambers and two antibiotic concentrations are tested: c0: “Without antibiotic” and “Resistance test”.
Let c1 be the concentration of gentamicin: c1=8 μg/mL, which corresponds to the doubling of the concentration 4 μg/mL corresponding to the clinical breakpoint as defined by the EUCAST. The objective of this test is to determine whether the bacterium is considered as resistant according to the definitions provided by the EUCAST.
A solution containing the bacteria to be tested is used as a test sample. This solution is obtained by suspending 5.10^7 CFU/mL in order to have a concentration potentially encountered in a clinical sample, for example a urine collection. This bacteria solution is brought into contact with the interface I of the device functionalized by adsorbing polyethylenimine (PEI) (generic capture). After a capture time of 10 minutes allowing the bacteria to come into contact with the functionalization, the interface I is washed with a water solution, this optional step allowing to eliminate the surplus of uncaptured bacteria still in solution. The physiological medium retained in this example is constituted of a poorly enriched mixture of Bouillon TSB-T Trypcase Soy broth (for example of the reference 42100 of bioMérieux) and of PBS 10× (for example obtained from the PBS tablets of the reference A9162, 0100 of the brand AppliChem) in a 1:9 ratio. After dividing this physiological medium into two fractions, an amount of gentamicin (for example of the reference G1397-10ML of Sigma-Aldrich) is added respectively to each of these fractions, allowing to obtain a different concentration of gentamicin c0 or c1. The solutions of concentrations c0 and c1 produced accordingly are respectively introduced into the chambers C0 or C1. The bacteria captured directly from the sample on the surface I are thus exposed, in a suitable medium, to a different antibiotic concentration depending on the chamber in which they are present.
The device is then heated in order to reach a temperature of 37° C. for two hours and then placed in measurement position on the micro-spectrometer. The marking of the captured bacteria is carried out by an automatic procedure based on image analysis, by a conventional procedure for detecting particles, acquired by means of the micro-spectrometer camera and a suitable light source. This marking allows acquiring automatically a series of Raman spectra (S0 and S1, respectively) acquired on individual bacteria present in each chamber C0 and C1. The number of spectra to be acquired for constituting a dataset depends on the level of requirement on the performances of the tests to be carried out. […]

[3] = tested on: Escherichia coli strain ATCC 35421 called "EC21"; test: Raman spectroscopy analysis of individual bacteria exposed to an antibiotic (method of the invention), strain EC21; type: cell-based
Protocol: A test identical to that of Example 1 is conducted on another strain of Escherichia coli, the strain ATCC 35421 called “EC21” allows confirming the discriminatory nature of the measurement.
In order to illustrate the discriminating power of this method, the same test performed for a strain of Escherichia coli ATCC 35421 resistant to amoxicillin called “EC21” is also shown.
A solution containing the bacteria to be tested, EC10 or EC21, is used as test sample. This solution is obtained by suspending 5 10^7 CFU/mL in water in order to have a concentration potentially encountered in a clinical sample, for example a urine collection. This bacteria solution is distributed in 5 filter tubes (for example MICROCON (Centrifugal filters) YM100 from Millipore) at a rate of 150 μL per tube. A sufficient amount is added to each of these tubes for the final 250 μL of physiological medium allowing the growth constituted in this example of a mixture of PBS of final concentration of 1× (obtained from the PBS tablets of the reference A9162,0100 of the brand AppliChem), of a nutrient medium TSB 0.1× (for example obtained from Bouillon TSB-T […] A8523-10ML of Sigma-Aldrich) as follows: • c0=0 μg/mL • c1=2 μg/mL • c2=4 μg/mL • c3=8 μg/mL • c4=16 μg/mL
The 5 tubes obtained accordingly are incubated for 2 hours at 37° C. with stirring. Centrifugation at 1200 g for 8 minutes using a centrifuge adapted to the used containers (for example the model 8415C of the brand Eppendorf) then allows retrieving a bacterial pellet on the filter portion of each tube and eliminating the medium. The bacterial pellets are respectively resuspended in water in order to carry out a washing before being again pelletized by centrifugation (1200 g for 10 minutes) always on the filter portion of the tube. These pellets are distributed on a glass slide of the Marienfield type constituting the interface I (not functionalized in this configuration) by means of a swab in corresponding chambers noted C0 to C4. […]

[4] = tested on: Escherichia coli strain ATCC 25922 called "EC10"; test: Reference methods (bioMérieux ETEST and VITEK card N233), strain EC10; type: cell-based; conditions: for phenotype according to the EUCAST / reference: from reference MIC
Excerpt: In order to illustrate the performances obtained accordingly, the average score obtained for all the results that would be obtained with a combination of 5 spectra per concentration (N=5) out of a total set of total acquired spectra of 294 spectra (M=294) is shown in FIG. 4. […] The score indicates the percentage of the test samples that are assigned to a given class by the classifier described above. […] The strain can therefore be described as sensitive according to the invention with a high reliability on the basis of only a few individual bacteria analyses. The result is consistent with the reference methods [BioMérieux products ETEST® (antimicrobial susceptibility testing kit) GM 256 (ref. 412368) and VITEK® card N233 (Gram Negative Susceptibility card; ref. 413117)] which give as a result a MIC=1 μg/mL, which confirms that the bacterium is not resistant according to the EUCAST, its MIC not being strictly above the threshold defined by this organism.
A MIC comprised between 4 μg/mL and 8 μg/mL can therefore be assigned to this strain according to the assays. This variability to a dilution factor is very frequent in this type of assay, the EUCAST indicates, for example, ranges of MIC variations of [2-8]μg/mL for this strain ATCC 25922 during quality controls of the MIC disc diffusion tests, and is therefore consistent with expected results.
The detection of an effect for concentrations greater than 0.005 μg/mL is thus observed. An antibiotic effect of ciprofloxacin can therefore be assigned to the strain tested for concentrations greater than 0.005 μg/mL. This test would therefore define a concentration of 0.005 μg/mL as a MIC. A new test could possibly be performed by adding the lowest concentrations between 0 and 0.005 μg/mL if necessary. […] A test performed with a suitable etest (bioMérieux) allows measuring a MIC of 0.008 μg/mL which confirms that the obtained result is in accordance with the reference methods [BioMérieux products ETEST® CI 32 (antimicrobial susceptibility testing kit; ref. 412311) and VITEK® card N233 (Gram Negative Susceptibility card; ref. 413117)].

[5] = tested on: Escherichia coli strain ATCC 35421 called "EC21"; test: Reference methods, strain EC21; type: cell-based; conditions: for phenotype according to the EUCAST / reference: from reference MIC
Protocol: A MIC>8 μg/mL can be assigned to this strain with this test, which is also consistent with the results obtained by the reference method.

[6] = tested on: Staphylococcus aureus strain ATCC 25923 called "SA44"; test: Reference methods (bioMérieux ETEST OX 256 or VITEK card P631), strain SA44; type: cell-based
[7] = tested on: Staphylococcus aureus strain ATCC 25923 called "SA44"; test: Raman spectroscopy analysis of individual bacteria exposed to an antibiotic (method of the invention), strain SA44; type: cell-based
Protocol: as §1
Let c1 be the concentration of oxacillin: c1=8 μg/mL which corresponds to multiplying by a factor of 32 the concentration of 0.25 μg/mL which corresponds to the clinical breakpoint as defined by the EUCAST. The objective of this test is to determine whether the bacterial strain is considered as resistant according to the definitions provided by the EUCAST.
A solution containing the bacteria to be tested is used as a test sample. This solution is obtained by suspending 5.10^7 CFU/mL in order to have a concentration potentially encountered in a clinical sample, for example a urine collection. The bacteria can come from a culture in a liquid medium or a culture in agar medium in Petri dish. This bacteria solution is brought into contact with the interface I of the device functionalized by adsorbing polyethylenimine (PEI) (generic capture). After a capture time of 10 minutes allowing the bacteria to come into contact with the functionalization, the interface I is washed with a water solution, this optional step allowing to eliminate the surplus of uncaptured bacteria still in solution. […]

E. coli = conditions: cited from earlier work

CC1(C)S[C@@H]2[C@H](NC(=O)[C@H](N)c3ccc(O)cc3)C(=O)N2[C@H]1C(=O)O [amoxicillin]
EUCAST range of MIC variations (acceptable variation range) ([1]; quality control range): 2 to 8 µg/mL
MIC ([2]; Escherichia coli, ATCC25922, Raman, 2 hours at 37° C. incubation, read-out: MIC assigned by the method of the invention): 4 to 8 µg/mL (≈ 10.9 to 21.9 µM)
MIC ([3]; Escherichia coli, ATCC35421, Raman, tested 0, 4 and 8 μg/mL, N=11, read-out: MIC assigned by the method of the invention): > 8 µg/mL
category assigned to the vast majority of the measured groups ([3]; amoxicillin 4 and 8 μg/mL, N=11, FIG. 7): without ATB effect
MIC ([4]; Escherichia coli, ATCC25922, read-out: MIC (reference methods, MICREF)): 6 µg/mL
phenotype according to the EUCAST / reference [4]: sensitive
MIC ([5]; Escherichia coli, ATCC35421, read-out: MIC (reference methods, MICREF)): 256 µg/mL (≈ 701 µM)
phenotype according to the EUCAST / reference [5]: resistant

O=C(O)c1cn(C2CC2)c2cc(N3CCNCC3)c(F)cc2c1=O [ciprofloxacin]
EUCAST known MIC [1]: 0.008 µg/mL
concentrations at which an antibiotic effect is detected ([2]; Raman, distance to gentamicin reference signature, tested 0, 0.005, 0.015, 0.064 μg/mL): greater than 0.005 μg/mL

Cc1onc(-c2ccccc2)c1C(=O)N[C@@H]1C(=O)N2[C@@H]1SC(C)(C)[C@@H]2C(=O)O [oxacillin]
MIC ([6]; Staphylococcus aureus, ATCC25923, ETEST OX 256 or VITEK card P631): 0.25 µg/mL (≈ 0.623 µM)
phenotype according to the EUCAST / reference ([6]; from reference MIC): not resistant
sensitivity phenotype according to the invention ([7]; Raman test at 8 μg/mL): sensitive
percentage of test samples classified as "ATB effect" ([7]; oxacillin 8 μg/mL, 2 hours at 37° C., N=9, M=337, FIG. 12 (liquid medium cultures)): greater than 97%

gentamicin
sensitivity phenotype according to the invention ([2]; Raman test at 8 μg/mL): sensitive
percentage of test samples classified as "ATB effect" ([2]; gentamicin 8 μg/mL, 2 hours at 37° C., N=5 spectra per sample, M=294, SVM classifier): 97.1%
percentage of performed tests that do not show a characteristic effect profile of the antibiotic agent ([3]; gentamicin 8 μg/mL, N=5, M=133): 100%
MIC (reference methods, MICREF) ([4]; ETEST / VITEK card N233): 1 µg/mL
phenotype according to the EUCAST / reference [4]: not resistant
phenotype according to the EUCAST / reference [5]: resistant
MIC (reference methods, MICREF) ([5]; reference methods): > 256 µg/mL
typical MIC, or epidemiological cut-off of the species (E. coli): 2 μg/mL

— US10704075B2, “Method for determining the reaction of a microorganism to its exposure to a chemical compound” (bioMérieux, priority 2015, dated 2020)
